The values below are quoted from earlier work in patent US20240398838A1 (priority 2023, published 2024).

The conditions of data set [1]: patients who did not respond to traditional antidepressant medications.
Data set [2] concerns candida species.
The conditions of data set [3]: mice with colitis.
For data set [4] the following is noted: compared to placebo.
Data set [5] deals with herpes simplex virus type 1.
Data set [6] relates to wide dynamic range neurons in the ventroposterolateral nucleus of the thalamus. The conditions noted are these: in vivo.
Data set [7] concerns AKT1 gene.
The conditions of data set [8]: in vivo.
The conditions of data set [9]: topical, within four weeks of treatment.
The conditions of data set [10]: topical, concentrations 0.5-5%.
In data set [11] the test system is ticks and mosquitoes. The conditions noted are these: compared with DEET.
Data set [12] relates to leukemia cells of two cultured leukemia cell lines. The conditions noted are these: in vitro.
Assay in data set [13]: not given
The source holds these as a separate data set.

Data set [14] concerns the target CB2 receptor (Homo sapiens, UniProt P34972).
The conditions of data set [15]: arthritic subjects.
The conditions of data set [16]: compared to α-tocopherol = 1.0.
For data set [17] the following is noted: even when dietary intake occurs in equal portions.
For data set [18] the following is noted: individuals with metabolic syndrome.
For data set [19] the following is noted: in vivo. The source holds these as a separate data set.

Square brackets hold non-standard residues; d marks the D form. Peptide text beside a SMILES is read from it. Cit = NC(=O)NCCC[C@H](N)C(=O)O

Sequence of CB2 receptor (P34972 whole entry): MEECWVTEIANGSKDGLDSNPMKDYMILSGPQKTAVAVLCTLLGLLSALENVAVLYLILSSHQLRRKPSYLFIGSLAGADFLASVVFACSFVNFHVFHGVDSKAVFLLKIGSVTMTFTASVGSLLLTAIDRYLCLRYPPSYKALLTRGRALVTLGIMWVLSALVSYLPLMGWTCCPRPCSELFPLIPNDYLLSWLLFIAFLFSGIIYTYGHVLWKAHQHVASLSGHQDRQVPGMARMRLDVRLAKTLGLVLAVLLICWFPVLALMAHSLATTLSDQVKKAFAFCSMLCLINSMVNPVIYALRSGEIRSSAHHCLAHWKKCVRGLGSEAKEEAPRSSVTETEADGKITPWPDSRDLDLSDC

Take `CN1c2c([nH]c(N)nc2=O)NCC1CNc1ccc(C(=O)N[C@@H](CCC(=O)O)C(=O)O)cc1` (some centres unmarked) [5-MTHF, 5-methyltetrahydrofolate]: the symptoms of depression entry in data set [1] is listed as “improved symptoms of depression”.

`CC(C)=CCC[C@](C)(O)[C@@H]1CC=C(C)CC1` [A-bisabolol, α-bisabolol]: the antifungal activity entry in [2] is recorded as “potent inhibitor”.

As to `C=C(C)[C@@H]1CCC(C)=C[C@H]1c1c(O)cc(CCCCC)cc1O` [CBD, cannabidiol], the “modulation of the gut microbiome” value in data set [3] is listed as “ability to modulate the gut microbiome”.

For `C/C=C1\[C@H]2C=C(C)C[C@]1(N)c1ccc(=O)[nH]c1C2` [Huperzine A], in [4], the “memory recall and cognitive function” value is on record as “significant improvements”.

Take `CC1(C)[C@@H]2CC[C@@]1(C)[C@@H](O)C2` [Isoborneol]: the “inhibition of herpes simplex virus type 1” value in data set [5] is given as “potent inhibitor”.

With `C/C(=C\CO)CCC[C@H](C)CCC[C@H](C)CCCC(C)C` [Phytol], the solubility entry is reported as “nearly insoluble in water, but soluble in most organic solvents”.

With `CCCCCc1cc(O)c2c(c1)OC(C)(C)C1CCC(C)=CC21` (centres unmarked) [THC, Δ-9-tetrahydrocannabinol], the “power in mediating pain relative to morphine” value in [6] is recorded as “ten times more powerful than morphine”. For the same compound, in [3], the “modulation of the gut microbiome” value is “ability to modulate the gut microbiome”.

Take `CC1=CCC(=C(C)C)CC1` [Terpinolene]: the “expression of the AKT1 gene” value in [7] is “markedly reduces”.

Consider `CCNC(=O)CC[C@H](N)C(=O)O` [Theanine], for which, in [8], the “dose considered safe and well-tolerated” value was “up to 400 mg per day”.

Consider `CC[C@H](C)[C@H](NC(=O)[C@H](CC(=O)O)NC(=O)[C@@H](N)CCCCN)C(=O)N[C@@H](CCCNC(N)=O)C(N)=O` [Tripeptide-10 citrulline] (H-KDI[Cit]-NH2), for which the improve suppleness in data set [9] was ≤ 54%.

As for `C=CCCCCCCCCC(=O)N[C@@H](Cc1ccccc1)C(=O)O` [UP, Undecylenoyl phenylalanine], in data set [10], the “time of treatment to skin lightening effects” value is recorded as ≥ 7 days.

Turning to `C=C(C)[C@@H]1CCC2=CCC[C@@H](C)[C@]2(C)C1` [Valencene], the “toxicity to ticks and mosquitoes” value in [11] was “toxic to ticks and mosquitoes at lesser concentrations than DEET”.

Consider `CC12CCC(CC1)C(C)(C)O2` [eucalyptol, 1,8-epoxy-p-menthane], for which the “killing of leukemia cells” value in data set [12] was “able to kill”.

Consider `Cc1ccc(C(C)C)cc1` [p-cymene, 1-isopropyl-4-methylbenzene], for which, in data set [2], the antifungal activity result is “strong antifungal activity”.

Take `Cc1c(C)c2c(c(C)c1O)CC[C@@](C)(CCC[C@H](C)CCC[C@H](C)CCCC(C)C)O2` [α-tocopherol]: in [13] (1600-3200 IU/day), the “blood plasma concentration of F2-isoprostane” value was “significantly lower”. Also, the “reducing the risk of coronary disease” value in data set [13] (doses up to 400 IU/day) is reported as “up to 34%”. Besides, the “reduce the risk of developing neurodegenerative diseases such as Alzheimer's Syndrome or dementia” value in data set [13] (doses up to 400 IU/day, controlled trials) is on record as ≤ 24%.

`C=C1CC/C=C(\C)CC[C@@H]2[C@@H]1CC2(C)C` [β-caryophyllene]: the “activity at CB2 receptor” value in data set [14] is “functional CB2 agonist”. Besides, the “swelling of joints and lymph nodes” value in data set [15] is “reduced swelling of joints and lymph nodes”.

As for `Cc1cc(O)c(C)c2c1O[C@](C)(CCC[C@H](C)CCC[C@H](C)CCCC(C)C)CC2` [β-tocopherol], in data set [16], the relative biological activity is listed as 0.5.

With `Cc1c(O)cc2c(c1C)O[C@](C)(CCC[C@H](C)CCC[C@H](C)CCCC(C)C)CC2` [γ-tocopherol], in data set [16], the relative biological activity is 0.1. Also, the “concentration in vivo relative to α-tocopherol” value in [17] was “roughly 10%”.

In the case of `Cc1cc(O)cc2c1O[C@](C)(CCC[C@H](C)CCC[C@H](C)CCCC(C)C)CC2` [δ-tocopherol], the relative biological activity in [16] was 0.03. Further, the “markers of inflammation in the blood” value in data set [18] is “reduced markers of inflammation”.

On to “HGH: hormone comprising a peptide chain that is synthesized in the pituitary gland”, for which the biological half-life in [19] was 10-20 minutes.
